Active and inactive are the calls of the source.
Assays:
[1] = target: T1, Beta-lactamase (Pseudomonas aeruginosa, UniProt Q79MP6); test: […] counterscreen for selective VIM-2 inhibitors: dose response biochemical high throughput screening assay to identify inhibitors of IMP-1 metallo-beta-lactamase.
[2] = target: T2, Beta Lactamase (Pseudomonas aeruginosa, UniProt Q932Y6); test: VIM-2 metallo-beta-lactamase inhibitor potency, dose response, biochemical, epi-absorbance readout, selective inhibitors (AID 1919)
T2 sequence (Q932Y6 whole entry): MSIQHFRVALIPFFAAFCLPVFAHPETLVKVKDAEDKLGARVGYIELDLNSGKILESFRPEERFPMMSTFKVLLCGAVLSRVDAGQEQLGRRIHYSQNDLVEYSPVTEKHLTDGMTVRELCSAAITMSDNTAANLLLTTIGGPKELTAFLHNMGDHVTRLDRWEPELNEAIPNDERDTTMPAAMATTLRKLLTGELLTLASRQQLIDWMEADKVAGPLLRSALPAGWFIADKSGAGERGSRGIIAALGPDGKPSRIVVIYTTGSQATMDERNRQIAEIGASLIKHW

[3] = target: Beta-lactamase (Salmonella choleraesuis (strain SC-B67), UniProt Q5J463); test: Epi-absorbance-based counterscreen for selective VIM-2 inhibitors: dose response biochemical high throughput screening assay to identify inhibitors of TEM-1 serine-beta-lactamase.
Beta-lactamase (Salmonella choleraesuis (strain SC-B67), UniProt Q5J463), sequence (Q5J463 whole entry): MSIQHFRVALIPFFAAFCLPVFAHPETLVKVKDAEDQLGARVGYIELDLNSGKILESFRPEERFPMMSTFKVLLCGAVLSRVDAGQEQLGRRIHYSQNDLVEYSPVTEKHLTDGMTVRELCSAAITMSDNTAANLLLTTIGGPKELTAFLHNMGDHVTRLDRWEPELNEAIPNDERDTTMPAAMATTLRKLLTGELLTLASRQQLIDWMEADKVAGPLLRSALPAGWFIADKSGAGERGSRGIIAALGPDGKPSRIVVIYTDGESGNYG

[4] = target: T1, Beta-lactamase; test: IMP-1 metallo-beta-lactamase inhibitors, dose response, selectivity assay for VIM-2 inhibitor project, biochemical, epi-absorbance (AID 1920)
[5] = target: T2, Beta Lactamase; test: VIM-2 inhibitor FRET-based artefact check, dose response, artefact control for selective VIM-2 inhibitor project, biochemical, FRET readout, CCF2 substrate (AID 1926)
[6] = target: T3, Caspase-3 (Homo sapiens, UniProt P42574); test: Dose-response confirmation of uHTS inhibitor hits of Sentrin-Specific Protease 8 in a Caspase-3 Fluorescence assay.; assay type: functional
T3 sequence (P42574 whole entry): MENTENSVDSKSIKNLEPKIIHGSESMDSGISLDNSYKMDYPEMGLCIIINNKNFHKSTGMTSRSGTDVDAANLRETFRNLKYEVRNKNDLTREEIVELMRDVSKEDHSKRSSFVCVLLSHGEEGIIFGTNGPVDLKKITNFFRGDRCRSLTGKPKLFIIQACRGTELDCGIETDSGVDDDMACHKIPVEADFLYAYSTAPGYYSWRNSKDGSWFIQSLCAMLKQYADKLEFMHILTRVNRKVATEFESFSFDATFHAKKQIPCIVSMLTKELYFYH

[7] = target: T4, Caspase-6 (Homo sapiens, UniProt P55212); test: human caspase-6 inhibitors, dose response, biochemical, VEID-R110 fluorescence, cherry-pick (AID 720632)
T4 sequence (P55212 whole entry): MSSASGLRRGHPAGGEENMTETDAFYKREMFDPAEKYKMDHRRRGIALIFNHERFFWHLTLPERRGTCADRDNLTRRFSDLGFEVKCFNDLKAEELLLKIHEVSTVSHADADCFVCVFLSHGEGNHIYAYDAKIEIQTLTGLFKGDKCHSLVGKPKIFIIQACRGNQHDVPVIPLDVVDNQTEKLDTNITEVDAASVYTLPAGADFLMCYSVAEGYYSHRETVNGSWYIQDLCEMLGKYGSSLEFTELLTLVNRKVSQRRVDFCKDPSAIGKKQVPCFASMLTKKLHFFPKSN

[8] = target: T5, Sentrin-specific protease 8 (Homo sapiens, UniProt Q96LD8); assay type: functional
T5 sequence (Q96LD8 whole entry): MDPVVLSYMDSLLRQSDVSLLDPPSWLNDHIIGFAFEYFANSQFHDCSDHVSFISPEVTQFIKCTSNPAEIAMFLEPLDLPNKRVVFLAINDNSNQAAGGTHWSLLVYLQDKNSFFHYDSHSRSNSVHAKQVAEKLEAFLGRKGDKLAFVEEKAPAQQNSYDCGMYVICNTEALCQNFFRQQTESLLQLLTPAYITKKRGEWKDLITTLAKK

[9] = target: T5, Sentrin-specific protease 8; assay type: functional; remark: listed apart in the source
[10] = target: T6, Sentrin-specific protease 1 (Homo sapiens, UniProt Q9P0U3); test: potency of human SENP1 inhibitors, dose response, biochemical, kinetic FRET (AID 651697); assay type: functional; conditions: read-out: IC50_Mean
T6 sequence (Q9P0U3 whole entry): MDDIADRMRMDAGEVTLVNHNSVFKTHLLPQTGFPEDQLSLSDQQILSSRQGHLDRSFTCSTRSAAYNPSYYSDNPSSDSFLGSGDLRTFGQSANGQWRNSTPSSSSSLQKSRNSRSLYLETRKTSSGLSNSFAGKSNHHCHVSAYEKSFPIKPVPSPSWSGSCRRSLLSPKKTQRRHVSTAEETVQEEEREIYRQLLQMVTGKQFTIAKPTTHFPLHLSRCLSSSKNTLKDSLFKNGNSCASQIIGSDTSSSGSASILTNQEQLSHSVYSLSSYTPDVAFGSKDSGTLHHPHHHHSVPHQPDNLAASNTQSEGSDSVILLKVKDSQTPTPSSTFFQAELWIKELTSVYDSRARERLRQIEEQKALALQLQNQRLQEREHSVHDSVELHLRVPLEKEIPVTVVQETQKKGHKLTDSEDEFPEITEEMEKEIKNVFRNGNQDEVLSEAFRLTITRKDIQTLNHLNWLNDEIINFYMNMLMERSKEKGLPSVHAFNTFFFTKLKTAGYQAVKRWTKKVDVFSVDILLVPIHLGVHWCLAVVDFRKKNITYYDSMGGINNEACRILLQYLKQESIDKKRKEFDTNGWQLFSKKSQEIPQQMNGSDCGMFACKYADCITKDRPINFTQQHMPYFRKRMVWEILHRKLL

[11] = HEp-2 cell cytotoxicity, dose response, cytotoxicity control for RSV inhibitor project, HTS (AID 2410); assay type: functional; conditions: human respiratory syncytial virus
[12] = target: T6, Sentrin-specific protease 1; test: Dose response confirmation of small molecule inhibitors of the catalytic domain of the SUMO protease, SENP1 in a FRET assay.; assay type: functional; conditions: read-out: IC50_Mean
[13] = cells; assay type: functional, cell-based
[14] = cells; assay type: functional, cell-based; remark: listed apart in the source
[15] = target: T7, Trace amine-associated receptor 1 (Homo sapiens, UniProt Q96RJ0); test: Counterscreen for agonists of the human trace amine associated receptor 1 (hTAAR1): Fluorescence-based cell-based high throughput dose response assay to identify hTAAR1 agonist that also desensitize TAAR1 receptor response.; assay type: functional
T7 sequence (Q96RJ0 whole entry): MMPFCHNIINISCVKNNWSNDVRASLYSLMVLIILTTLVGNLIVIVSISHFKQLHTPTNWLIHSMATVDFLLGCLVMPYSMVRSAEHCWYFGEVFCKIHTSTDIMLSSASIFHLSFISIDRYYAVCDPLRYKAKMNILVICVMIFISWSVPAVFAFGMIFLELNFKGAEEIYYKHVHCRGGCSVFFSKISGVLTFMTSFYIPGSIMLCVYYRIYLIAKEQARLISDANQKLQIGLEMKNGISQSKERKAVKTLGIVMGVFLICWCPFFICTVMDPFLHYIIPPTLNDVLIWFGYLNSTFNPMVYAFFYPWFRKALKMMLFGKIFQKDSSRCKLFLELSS

[16] = target: T7, Trace amine-associated receptor 1; test: Fluorescence-based cell-based high throughput dose response assay to identify agonists of the human trace amine associated receptor 1 (TAAR1).; assay type: functional
[17] = HeLa cell cytotoxicity, dose response, cytotoxicity control for MgcRacGAP inhibitor project (AID 624300); assay type: functional
[18] = target: T8, Rac GTPase-activating protein 1 (Homo sapiens, UniProt Q9H0H5); test: MgcRacGAP GTPase-activating activity inhibitors, confirmation, biochemical, ADP Hunter fluorescence, primary and confirmatory (AID 624330); assay type: functional
T8 sequence (Q9H0H5 whole entry): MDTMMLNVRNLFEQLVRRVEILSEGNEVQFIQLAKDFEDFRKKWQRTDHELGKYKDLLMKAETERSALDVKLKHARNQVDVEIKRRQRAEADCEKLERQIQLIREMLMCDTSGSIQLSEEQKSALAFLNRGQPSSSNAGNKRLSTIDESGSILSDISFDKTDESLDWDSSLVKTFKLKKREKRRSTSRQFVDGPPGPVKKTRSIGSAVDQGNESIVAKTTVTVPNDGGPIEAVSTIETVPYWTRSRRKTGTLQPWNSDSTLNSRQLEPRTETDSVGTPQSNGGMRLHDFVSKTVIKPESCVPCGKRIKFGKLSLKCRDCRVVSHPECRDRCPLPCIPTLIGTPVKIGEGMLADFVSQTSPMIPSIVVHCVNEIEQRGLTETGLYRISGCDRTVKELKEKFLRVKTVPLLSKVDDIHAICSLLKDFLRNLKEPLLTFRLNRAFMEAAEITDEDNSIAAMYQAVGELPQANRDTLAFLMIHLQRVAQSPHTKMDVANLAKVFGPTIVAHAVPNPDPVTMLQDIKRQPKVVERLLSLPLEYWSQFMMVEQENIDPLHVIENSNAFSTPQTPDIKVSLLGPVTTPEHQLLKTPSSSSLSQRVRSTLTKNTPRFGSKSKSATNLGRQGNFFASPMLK

T1 sequence (Q79MP6 whole entry): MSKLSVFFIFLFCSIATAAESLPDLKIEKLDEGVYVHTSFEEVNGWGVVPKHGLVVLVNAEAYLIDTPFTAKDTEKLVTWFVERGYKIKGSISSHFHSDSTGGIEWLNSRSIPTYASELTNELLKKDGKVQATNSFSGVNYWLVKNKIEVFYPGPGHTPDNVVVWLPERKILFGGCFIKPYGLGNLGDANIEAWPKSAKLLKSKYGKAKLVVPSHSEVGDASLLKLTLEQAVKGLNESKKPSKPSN

For `O=C(C1=C(O)C(=O)N(Cc2cccnc2)C1c1ccccn1)c1ccccc1` (stereo not drawn), the IC50 [1] was > 59.6 µM (inactive), the IC50 [2] was 5 µM (active) and the IC50 [3] was > 59.6 µM (inactive). The IC50 [4] was > 59.6 µM (inactive) and the IC50 [5] was 2.17 µM (active).
For `O=C(COC(=O)c1ccc([N+](=O)[O-])o1)NCc1ccc(F)cc1`, the IC50 [6] was 99.7 µM (inactive), the AC50 [7] was 40.7 µM (active) and the IC50 [8] was 11.7 µM (active). The IC50 [9] was 6.4 µM (active).
With `COc1ccc(-c2ccc3c(c2)S(=O)(=O)c2cccc(C(=O)NCCOc4ccccc4)c2C3=O)cc1OC` the IC50 [10] was 10.5 µM (active), the CC50 [11] was 46.1 µM (active) and the IC50 [12] was 8.3 µM (active).
In the case of `O=C(O)/C=C/C(=O)NCCC1=CCCCC1`, the IC50 [13] is reported as > 29.9 µM (inactive), the EC50 [14] is reported as > 29.9 µM (inactive) and the IC50 [15] is reported as 7.65 µM (active). For the same molecule, the EC50 [16] was 1.39 µM (active).
In the case of `COc1cc(/C=N/NC(=O)NC23CC4CC(CC(C4)C2)C3)ccc1O`, the CC50 [17] is reported as 100 µM (active) and the IC50 [18] is reported as 54.5 µM (active).

Reference: ChEMBL document CHEMBL1201862, “PubChem BioAssay data set” (2004)
